{
  "source": "patent US6656459B2",
  "about": "“Compositions of non-ionic block copolymers to treat autoimmune and inflammatory diseases, and to reduce graft/implantation, and methods of use thereof” (priority 2000, dated 2003)",
  "test_system": "Collagen-immunized DBA/I mice",
  "test": "collagen-induced arthritis (CIA), frequency and severity of RA symptoms",
  "type": "in vivo",
  "method": "The anti-RA efficacy of SP1018R (200 μl of F127 and L61 in a ratio of 8:1 at a concentration of 2.25% ) was compared to that of MTX that was given at a human equivalent dose (0.1 mg/kg i.v.), both drugs were given on day 30 and day 37 after the first immunization with collagen. For induction of severe CIA, mice were primed with 500 μl pristane and immunized at day 14 and 21 by administration of 100 μg colagen type II in Freund's complete adjuvant. The control (placebo) and the treated animals were evaluated for RA severity. RA was graded semi-quantitatively on a scale of 0-4 for each paw: 0=no changes; 0.5=significant swelling and redness on one digit; 1=swelling and erythema of 2 digits; 2=mild swelling and erythema of the limb or swelling of more than 2 digits; 3=marked swelling and erythema of the limb; and 4=maximal swelling and redness of the limb and later, ankylosis. […] Rev. Immunol.\nThe data shown below represent the maximal frequency (%) of animals having developed symptoms of RA and the frequency of animals still having the symptoms of RA at the end of the study. All Pluronics used in all examples were purchased from BASF Co.\nFrequency of RA development at various time points during the course of RA development",
  "key": {"[1]": {"details": "Study NG256, given twice (2X; day 30 and day 37)"}},
  "data": [
    {"smiles": "CN(Cc1cnc2nc(N)nc(N)c2n1)c1ccc(C(=O)N[C@@H](CCC(=O)O)C(=O)O)cc1", "note": "[MTX, methotrexate]", "values": [
      {"measurement": "RA severity, clinical disease symptoms (scale of 0-4 for each paw)", "setting": "SP1018R 200 μl, MTX 0.1 mg/kg i.v., day 30 and day 37 after first immunization", "value": "slight therapeutic effect"},
      {"measurement": "frequency of animals still having the symptoms of RA at the end of the study", "setting": "[1]", "value": 100, "unit": "%"},
      {"measurement": "maximal frequency (%) of animals having developed symptoms of RA", "setting": "[1]", "value": "MTX—100%"}
    ]}
  ]
}
